Source: the NIST ThermoML archive (doi:10.1021/je400655j)

Assay: wn = mass fraction of the nth substance listed
Details: 101 kPa, Liquid; for mass density: Vibrating tube method; for viscosity: Concentric cylinders viscometry

CC(CC(C)(C)C)CP(=O)([O-])CC(C)CC(C)(C)C.CCCCCCCCCCCCCC[P+](CCCCCC)(CCCCCC)CCCCCC + O
Details | mass density, w2 = 0.05 [kg/m3] | mass density, w2 = 0.1 [kg/m3] | viscosity, w2 = 0.05 [mPa·s] | viscosity, w2 = 0.1 [mPa·s]
293 K | 899.1 | 907.3 | – | –
298 K | 895.8 | 903.9 | 281 | 174
303 K | 892.6 | 900.7 | 203 | 137
308 K | 889.3 | 897.4 | 150 | 103
313 K | 886.1 | 894.1 | 114 | 78
318 K | 882.9 | 890.7 | 87 | 59
323 K | 879.7 | 887.4 | 68 | 47
328 K | 876.5 | 884 | 54 | 37
333 K | – | – | 44 | 31
338 K | – | – | 36 | 25
343 K | – | – | 31 | 23

CC(=O)[O-].CCCCn1cc[n+](C)c1 [1-butyl-3-methylimidazolium acetate] + CC(CC(C)(C)C)CP(=O)([O-])CC(C)CC(C)(C)C.CCCCCCCCCCCCCC[P+](CCCCCC)(CCCCCC)CCCCCC
Details | mass density, w1 = 0.2 [kg/m3] | mass density, w1 = 0.5 [kg/m3] | viscosity, w1 = 0.2 [mPa·s] | viscosity, w1 = 0.5 [mPa·s]
293 K | 908.8 | 937.1 | – | –
298 K | 905.6 | 933.6 | 160 | 33
303 K | 902.4 | 930.1 | 123 | 27
308 K | 899.3 | 926.6 | 97 | 22
313 K | 896.1 | 923.1 | 77 | 19
318 K | 893 | 919.6 | 63 | 17
323 K | 889.9 | 916.1 | 52 | 15
328 K | 886.7 | 912.6 | 44 | 13
333 K | 883.5 | 909.2 | 37 | 12
338 K | 880.3 | 905.7 | 32 | 11
343 K | 877.1 | 902.2 | 28 | 10
